Assays:
[1] = target: T1, GrhO6 (Streptomyces sp. JP95, UniProt Q8KSX5); assay: identification of flavin bound to purified enzyme by HPLC; assay type: binding; conditions: co-purified cofactor, tight, non-covalent
T1 construct: full-length gene in pETDuet-1 (EcoRI/PstI), polyhistidine tag kept; E. coli BL21 (DE3)
T1 sequence (Q8KSX5 1-520): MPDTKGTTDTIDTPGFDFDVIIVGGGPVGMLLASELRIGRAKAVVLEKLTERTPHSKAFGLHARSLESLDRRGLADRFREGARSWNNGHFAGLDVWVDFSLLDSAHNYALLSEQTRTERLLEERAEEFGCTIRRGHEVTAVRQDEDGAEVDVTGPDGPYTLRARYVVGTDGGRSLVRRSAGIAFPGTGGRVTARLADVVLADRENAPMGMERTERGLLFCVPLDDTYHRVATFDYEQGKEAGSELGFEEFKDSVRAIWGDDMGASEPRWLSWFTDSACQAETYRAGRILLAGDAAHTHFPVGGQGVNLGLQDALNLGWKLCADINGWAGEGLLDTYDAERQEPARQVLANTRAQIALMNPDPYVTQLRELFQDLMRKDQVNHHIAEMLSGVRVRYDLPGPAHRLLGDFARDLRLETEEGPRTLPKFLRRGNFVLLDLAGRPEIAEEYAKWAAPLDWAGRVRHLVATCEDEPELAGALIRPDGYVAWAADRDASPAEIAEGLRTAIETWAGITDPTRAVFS

[2] = target: T2, GrhO5 (Streptomyces sp. JP95, UniProt Q8KSX7); assay: as above; assay type: binding; conditions: co-purified cofactor
T2 construct: full-length gene in pMAL-c5x-His (NdeI/PstI), N-terminal MBP tag kept; E. coli BL21 (DE3); amplified from cosmid pMP31
T2 sequence (Q8KSX7 1-537): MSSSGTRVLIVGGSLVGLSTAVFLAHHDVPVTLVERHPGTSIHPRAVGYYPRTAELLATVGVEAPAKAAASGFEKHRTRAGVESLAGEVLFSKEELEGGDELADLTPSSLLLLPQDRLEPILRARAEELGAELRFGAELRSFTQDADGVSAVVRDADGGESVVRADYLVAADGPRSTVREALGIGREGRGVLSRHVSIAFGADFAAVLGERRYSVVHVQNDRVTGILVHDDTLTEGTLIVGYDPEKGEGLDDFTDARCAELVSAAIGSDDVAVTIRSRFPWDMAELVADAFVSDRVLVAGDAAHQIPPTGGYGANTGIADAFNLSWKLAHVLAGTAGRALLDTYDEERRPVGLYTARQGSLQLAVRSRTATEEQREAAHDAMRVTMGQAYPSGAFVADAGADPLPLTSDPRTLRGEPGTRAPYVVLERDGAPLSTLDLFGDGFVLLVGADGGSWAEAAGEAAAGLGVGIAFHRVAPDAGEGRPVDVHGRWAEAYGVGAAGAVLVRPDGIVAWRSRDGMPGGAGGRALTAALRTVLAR

SMILES: Cc1cc2nc3c(=O)[nH]c(=O)nc-3n(C[C@H](O)[C@H](O)[C@H](O)COP(=O)(O)OP(=O)(O)OC[C@H]3O[C@@H](n4cnc5c(N)ncnc54)[C@H](O)[C@@H]3O)c2cc1C [FAD]
- identification of flavin bound to purified enzyme by HPLC [1]: contained a tightly, but non-covalently bound FAD cofactor similar to GrhO5
- identification of flavin bound to purified enzyme by HPLC [2]: bound flavin cofactor that was further determined as flavin adenine dinucleotide

Reference: publication PMC7933358, “Enzymatic spiroketal formation via oxidative rearrangement of pentangular polyketides” (Nature Communications, 2021)
